{"source": "patent US20010036955A1", "about": "“Method of inhibiting angiogenesis” (Genentech, Inc., priority 1998, published 2001)", "key": {"HUVEC tube formation [1]": {"system": "HUVEC tube formation", "experiment": "Endothelial tube assay of Example 7 (average tube length, 3-D type I collagen gels)", "type": "cell-based, human", "conditions": "10 μM; 24 h; 3-D collagen gels", "description": "Collagen gels were formed by mixing together ice-cold gelation solution (IOX M199, H2O, 0.53M NaHCO3, 200 mM L-glutamine, type I collagen, 0.1M NaOH, 100:27.2:50:10:750:62.5 by volume) and cells in 1× basal medium (see below) at a concentration of 3×10^6 cells/ml at a ratio of 4 volumes gelation solution: 1 volume of cells (18). After gelation at 37° C. for 30 min, the gels were overlaid with 1× basal medium consisting of M199 supplemented with […], 1× ITS, 2 mM L-glutamine, […] ascorbic acid, 26.5 mM NaHCO3, 100 U/ml penicillin and 100 U/ml streptomycin supplemented with 40 ng/ml bFGF, 40 ng/ml VEGF, 80 nM PMA or the combination of PMA (80 nM), bFGF and VEGF (40 ng/ml each). All drugs were added to the 1× basal medium immediately after gelation. To quantify tube formation, the average tube length was determined by measuring total tube length (long axis) in three consecutive layers of a low power (10×) field using Openlab software (Improvision Inc, England). Each layer was separated by 100 μm."}, "HUVEC tube formation [2]": {"system": "HUVEC tube formation", "experiment": "Endothelial tube assay (number of tubes, three-dimensional collagen gels)", "type": "cell-based, human", "description": "In this model, endothelial cells are suspended in a three-dimensional collagen lattice of type I collagen and undergo rapid morphogenesis. Within 4 hr numerous vacuoles are observed in the majority of endothelial cells; at 24 hr the formation of tube-like structures can be observed and at 48 hr an interconnected network of tube-like structures is observed.\nCollagen gels were formed by mixing together ice-cold gelatin solution (10× M199, H2O, 0.53M NaHCO3, 200 mM L-glutamine, type I collagen, 0.1M NaOH, 100:27.2:50:10:750:62.5 by volume) and cells in 1× basal medium at a concentration of 3×10^6 cells/ml at a ratio of 4 volumes gelatin solution: 1 volume of cells. After gelation at 37 for 30 min, the gels were overlaid with IX basal medium consisting of M199 supplemented with 1%FBS, 1× ITS, 2 mM L-glutamine, 50 μg/ml ascorbic acid, 26.5 mM NaHCO3, 100 U/ml penicillin and 100 U/mil streptomycin supplemented with 40 ng/ml BFGF, 40 ng/ml VEGF and 80 nM phorbol myristate acetate (PMA). All drugs were added to the IX basal medium immediately after gelation. To quantitate tube formation, the number of tubes per high power (20× field) was determined 48 hr after addition of the basal medium Five independent fields separated by 100 μm optical sections were assessed for each well. Cytotoxicity was assessed using an XTT kit from Boehringer Mannheim (Indianapolis, Ind.)."}, "HUVEC proliferation": {"system": "HUVEC proliferation", "experiment": "Proliferation assay (BrdU incorporation)", "type": "cell-based, human", "conditions": "type I collagen-coated surface, VEGF, bFGF and PMA, read-out: inhibition of endothelial cell (HUVEC) proliferation, IC50", "description": "Cells were cultured in above medium in the presence of drugs or vehicle for 4 hr. 5 μl (100 μM) of 5′-bromo-2′-deoxyuridine (BrdU) was added in a final volume of 100 μl/well and cells were incubated for another 20 hr. BrdU incorporation was evaluated by an ELISA kit from Boehringer Mannheim (Indianapolis, Ind.)."}, "[3]": {"system": "VEGF-stimulated angiogenesis in rat cornea", "experiment": "Corneal angiogenesis assay (Hydron pellet with VEGF)", "type": "in vivo, Sprague-Dawley rats", "description": "A 1.5 mm incision was made approximately 1 mm from the center of the cornea of isoflurane-ketamine (60-80 mg/kg) xylazine (10-15 mg/kg) anesthetized Sprague-Dawley rats. Using a curved spatula, the incision was bluntly dissected through the stroma towards the outer canthus of the eye. A Hydron pellet […] containing VEGF (200 ng), sucralfate (100 μg) with or without (control) 15d-PGJ2 (10 μg/pellet) was inserted into the base of the pocket. After surgery, the eyes were coated with gentamicin ointment. Animals are observed at 24-48 hr for the occurrence of nonspecific inflammation and then daily thereafter. At day 6, the animals were euthanized and injected with FITC-dextran to allow for visualization of the vasculature. Corneal whole mounts were made of the enucleated eyes and analyzed for neovascular area using the computer assisted image analysis."}}}
{"compound": "CCCCC/C=C/C=C1/C(=O)C=CC1C/C=C\\CCCC(=O)O", "note": "(stereo not drawn) [15d-PGJ2, 15-deoxy-delta^12,14-PGJ2]", "values": [{"measurement": "PMA or PMA in combination with bFGF and VEGF induced HUVEC tube formation", "setting": "HUVEC tube formation [1]", "value": "blocked"}, {"measurement": "effect on tube formation (FIG. 1B)", "setting": "HUVEC tube formation [2]; 10 μM, 48 hr", "value": "inhibitory effects"}, {"measurement": "IC50", "setting": "HUVEC tube formation [2]; HUVEC in collagen gels with bFGF, VEGF and PMA, tubes counted at 48 hr, read-out: inhibition of tube formation, IC50", "value": 2800, "unit": "nM"}, {"measurement": "IC50", "setting": "HUVEC proliferation", "value": 2400, "unit": "nM"}, {"measurement": "area of new vessels (FIG. 4C)", "setting": "[3]; 200 ng/pellet VEGF and 10 μg/ml 15d-PGJ2, day 6 postimplantation, p<0.05, Mann-Whitney", "value": "significantly different from VEGF alone group"}, {"measurement": "vessel length compared to VEGF only (positive) controls", "setting": "[3]; Hydron pellet, 200 ng VEGF with 10 μg 15d-PGJ2, rat cornea", "value": "significant reduction"}]}
